Assay results from ChEMBL document CHEMBL4152340, “Targeting the MDM2-p53 protein-protein interaction with prenylchalcones: Synthesis of a small library and evaluation of potential antitumor activity” (Eur J Med Chem, 2018).
Active and inactive are the calls of the source. No cut-off for these calls is given here.

How the values were obtained:
HCT-116 [1] = assay: Antiproliferative activity against human HCT116 cells after 48 hrs by SRB assay; assay type: functional, cell-based; details: HCT-116, 48 h
Saccharomyces cerevisiae [2] = assay: Growth inhibition of Saccharomyces cerevisiae expressing MDM2 at 1 to 50 uM after 42 hrs by Yeast-based assay; assay type: organism-based; details: in vivo
Saccharomyces cerevisiae [3] = assay: Growth inhibition of Saccharomyces cerevisiae expressing empty vector at 1 to 50 uM after 42 hrs by Yeast-based assay; assay type: organism-based; details: in vivo
[4] = target: T1, Tumour suppressor p53/oncoprotein Mdm2 (Homo sapiens) (UniProt P04637+Q00987); assay: Inhibition of human MDM2-p53 interaction in Saccharomyces cerevisiae assessed as p53 induced cell growth arrest at 1 to 50 uM after 42 hrs by Yeast-based assay; assay type: protein assay
T1 sequence (P04637 whole entry, looked up): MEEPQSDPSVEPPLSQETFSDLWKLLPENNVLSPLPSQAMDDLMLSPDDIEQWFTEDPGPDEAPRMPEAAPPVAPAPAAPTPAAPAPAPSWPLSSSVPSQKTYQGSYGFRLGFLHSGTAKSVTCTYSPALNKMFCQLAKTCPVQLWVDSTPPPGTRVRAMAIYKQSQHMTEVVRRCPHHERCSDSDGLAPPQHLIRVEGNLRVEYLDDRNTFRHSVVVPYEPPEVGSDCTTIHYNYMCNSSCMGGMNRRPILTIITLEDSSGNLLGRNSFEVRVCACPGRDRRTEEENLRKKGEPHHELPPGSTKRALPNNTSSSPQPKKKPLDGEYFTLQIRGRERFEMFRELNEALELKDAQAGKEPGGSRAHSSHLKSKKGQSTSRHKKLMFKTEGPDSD
T1 sequence (Q00987 whole entry, looked up): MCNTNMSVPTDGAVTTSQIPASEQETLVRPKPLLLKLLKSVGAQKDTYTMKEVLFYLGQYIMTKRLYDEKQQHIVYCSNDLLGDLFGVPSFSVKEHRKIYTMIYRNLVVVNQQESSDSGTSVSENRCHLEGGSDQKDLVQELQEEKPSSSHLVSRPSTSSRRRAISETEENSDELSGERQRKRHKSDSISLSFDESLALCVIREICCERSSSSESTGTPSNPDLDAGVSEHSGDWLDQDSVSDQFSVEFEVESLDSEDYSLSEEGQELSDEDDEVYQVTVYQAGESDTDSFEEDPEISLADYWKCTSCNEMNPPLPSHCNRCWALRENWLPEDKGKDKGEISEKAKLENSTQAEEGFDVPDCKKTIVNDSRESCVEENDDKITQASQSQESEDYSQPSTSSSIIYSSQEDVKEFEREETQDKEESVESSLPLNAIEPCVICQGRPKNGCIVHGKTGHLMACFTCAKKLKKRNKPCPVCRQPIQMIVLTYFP

Saccharomyces cerevisiae [5] = assay: Growth inhibition of Saccharomyces cerevisiae expressing p53 at 1 to 50 uM after 42 hrs by Yeast-based assay; assay type: organism-based; details: in vivo
HCT-116 [6] = assay: Cell cycle arrest in human HCT116 cells assessed as accumulation at G2/M phase at 4.2 uM after 48 hrs by propidium iodide staining-based flow cytometric analysis; assay type: functional
HCT-116 [7] = assay: Induction of apoptosis in human HCT116 cells at 4.2 uM after 48 hrs by annexin V/FITC-propidium iodide staining-based flow cytometric method; assay type: functional, cell-based
[8] = Selectivity ratio of IC50 for human HFF to IC50 for human HepG2 cells; assay type: toxicity; details: HFF cells versus HepG2 cells, read-out: Ratio IC50
[9] = target: T1, Tumour suppressor p53/oncoprotein Mdm2 (Homo sapiens); assay: Inhibition of MDM2-p53 interaction in human HCT116 cells assessed as p53 activation by measuring increase in PUMA level at 4.2 uM after 48 hrs by Western blot analysis; assay type: cell-based
[10] = target: T1, Tumour suppressor p53/oncoprotein Mdm2 (Homo sapiens); assay: Inhibition of MDM2-p53 interaction in human HCT116 cells assessed as p53 activation by measuring increase in MDM2 expression at 4.2 uM after 48 hrs by Western blot analysis; assay type: cell-based
HepG2 = assay: Antiproliferative activity against human HepG2 cells after 48 hrs by SRB assay; assay type: functional, cell-based; details: HepG2, 48 h
[11] = Selectivity ratio of IC50 for human HFF to IC50 for human MCF7 cells; assay type: toxicity; details: HFF cells versus MCF7 cells, read-out: Ratio IC50
A-375 = assay: Antiproliferative activity against human A375 cells after 48 hrs by SRB assay; assay type: functional, cell-based; details: A-375, 48 h
[12] = target: T1, Tumour suppressor p53/oncoprotein Mdm2 (Homo sapiens); assay: Inhibition of MDM2-p53 interaction in human HCT116 cells assessed as p53 activation by measuring increase in GADD45 level at 4.2 uM after 48 hrs by Western blot analysis; assay type: cell-based
[13] = target: T1, Tumour suppressor p53/oncoprotein Mdm2 (Homo sapiens); assay: Inhibition of MDM2-p53 interaction in human HCT116 cells assessed as p53 activation by measuring decrease in Bcl-2 level at 4.2 uM after 48 hrs by Western blot analysis; assay type: cell-based
HCT-116 [14] = assay: Induction of mitochondrial ROS generation in human HCT116 cells at 4.2 uM after 48 hrs by MitoSOX dye-based flow cytometric analysis; assay type: functional, cell-based
HCT-116 [15] = assay: Anticlonogenic activity against human HCT116 cells after 11 days by crystal violet staining based assay; assay type: functional, cell-based; details: HCT-116, 264 h
MCF7 = assay: Antiproliferative activity against human MCF7 cells after 48 hrs by SRB assay; assay type: functional, cell-based; details: MCF7, 48 h
[16] = Selectivity ratio of IC50 for human HFF to IC50 for human A375 cells; assay type: toxicity; details: HFF cells versus A375 cells, read-out: Ratio IC50
[17] = Selectivity ratio of IC50 for human HFF to IC50 for human HCT116 cells; assay type: toxicity; details: HFF cells versus HCT116 cells, read-out: Ratio IC50
[18] = target: T1, Tumour suppressor p53/oncoprotein Mdm2 (Homo sapiens); assay: Inhibition of MDM2-p53 interaction in human HCT116 cells assessed as p53 activation by measuring increase in p21 level at 4.2 uM after 48 hrs by Western blot analysis; assay type: cell-based
[19] = target: T1, Tumour suppressor p53/oncoprotein Mdm2 (Homo sapiens); assay: Inhibition of MDM2-p53 interaction in human HCT116 cells assessed as p53 activation by measuring increase in cleaved-PARP level at 4.2 uM after 48 hrs by Western blot analysis; assay type: cell-based
Saccharomyces cerevisiae [20] = assay: Growth inhibition of Saccharomyces cerevisiae expressing MDM2 at 10 uM after 42 hrs by Yeast-based assay; assay type: organism-based; details: in vivo
Saccharomyces cerevisiae [21] = assay: Growth inhibition of Saccharomyces cerevisiae expressing p53 at 10 uM after 42 hrs by Yeast-based assay; assay type: organism-based; details: in vivo
Saccharomyces cerevisiae [22] = assay: Growth inhibition of Saccharomyces cerevisiae expressing empty vector at 10 uM after 42 hrs by Yeast-based assay; assay type: organism-based; details: in vivo

COc1cc(OC)c(C(=O)/C=C/c2cccc(Cl)c2Cl)c(OCC=C(C)C)c1
IC50 (HCT-116 [1]): 1.9 µM

COc1cc(OC)c(C(=O)/C=C/c2ccc(OC)c(OC)c2)c(OCC=C(C)C)c1
IC50 (HCT-116 [1]): 5.7 µM

COc1cc(O)c(C(=O)/C=C/c2cccc(OC)c2OC)c(OC)c1
IC50 (HCT-116 [1]): 3.5 µM

COc1cc(O)c(C(=O)/C=C/c2ccc(Br)cc2)c(OC)c1
IC50 (HCT-116 [1]): 14 µM

COc1cccc(/C=C/C(=O)c2c(OC)cc(OC)cc2OCC=C(C)C)c1
IC50 (HCT-116 [1]): 7.7 µM

COc1cccc(/C=C/C(=O)c2c(O)c(CC=C(C)C)c(OC)c(CC=C(C)C)c2OC)c1OC
IC50 (HCT-116 [1]): 15.3 µM

COc1ccc(/C=C/C(=O)c2c(O)cc(OC)cc2OC)c(OC)c1
growth inhibition (GI) (Saccharomyces cerevisiae [2]): Non-Toxic
growth inhibition (GI) (Saccharomyces cerevisiae [3]): Non-Toxic
inhibition [4]: Active
growth inhibition (GI) (Saccharomyces cerevisiae [5]): Non-Toxic
IC50 (HCT-116 [1]): 50 µM

COc1cc(OC)c(C(=O)/C=C/c2ccc(Br)cc2)c(OCC=C(C)C)c1
Activity (HCT-116 [6]): Active
Activity (HCT-116 [7]): Active
growth inhibition (GI) (Saccharomyces cerevisiae [2]): Non-Toxic
selectivity ratio [8]: 3
inhibition [9]: Active
inhibition [10]: Active
IC50 (HepG2): 3.6 µM
selectivity ratio [11]: 3
growth inhibition (GI) (Saccharomyces cerevisiae [3]): Non-Toxic
IC50 (A-375): 1.6 µM
inhibition [12]: Active
inhibition [4]: Active
inhibition [13]: Active
Activity (HCT-116 [14]): Active
IC50 (HCT-116 [15]): 0.17 µM
growth inhibition (GI) (Saccharomyces cerevisiae [5]): Non-Toxic
IC50 (MCF7): 2.8 µM
selectivity ratio [16]: 3
selectivity ratio [17]: 3
IC50 (HCT-116 [1]): 2.1 µM
inhibition [18]: Active
inhibition [19]: Active

COc1cc(O)c(C(=O)/C=C/c2cccc(OC)c2OC)c(OC)c1CC=C(C)C
growth inhibition (GI) (Saccharomyces cerevisiae [2]): Non-Toxic
growth inhibition (GI) (Saccharomyces cerevisiae [3]): Non-Toxic
inhibition [4]: Active
growth inhibition (GI) (Saccharomyces cerevisiae [5]): Non-Toxic
IC50 (HCT-116 [1]): 29.5 µM

COc1cccc(/C=C/C(=O)c2c(O)cc(OC)cc2OC)c1
IC50 (HCT-116 [1]): 3.1 µM

COc1cc(OC)c(C(=O)/C=C/c2cc(OC)c(OC)c(OC)c2)c(OCC=C(C)C)c1CC=C(C)C
IC50 (HCT-116 [1]): 2.9 µM

COc1cc(O)c(C(=O)/C=C/c2cc(Cl)cc(Cl)c2)c(OC)c1
IC50 (HCT-116 [1]): 1.9 µM

COc1cc(O)c(C(=O)/C=C/c2cccc(Cl)c2Cl)c(OC)c1
IC50 (HCT-116 [1]): 2.7 µM

COc1ccc(/C=C/C(=O)c2c(O)cc(OC)cc2OC)cc1 [FLAVOKAWAIN A]
growth inhibition (GI) (Saccharomyces cerevisiae [2]): Non-Toxic
growth inhibition (GI) (Saccharomyces cerevisiae [3]): Non-Toxic
inhibition [4]: Active
growth inhibition (GI) (Saccharomyces cerevisiae [5]): Non-Toxic
IC50 (HCT-116 [1]): 10.6 µM

COc1ccc(C2=N[C@@H](c3ccc(Cl)cc3)[C@@H](c3ccc(Cl)cc3)N2C(=O)N2CCNC(=O)C2)c(OC(C)C)c1 [NUTLIN-3]
growth inhibition (GI) (Saccharomyces cerevisiae [20]): Non-Toxic
growth inhibition (GI) (Saccharomyces cerevisiae [21]): Non-Toxic
growth inhibition (GI) (Saccharomyces cerevisiae [22]): Non-Toxic

COc1cc(OC)c(C(=O)/C=C/c2cc(Cl)cc(Cl)c2)c(OCC=C(C)C)c1
IC50 (HCT-116 [1]): 24.5 µM

COc1ccc(/C=C/C(=O)c2c(OC)cc(OC)cc2OCC=C(C)C)cc1
IC50 (HCT-116 [1]): 7.6 µM

COc1cc(OC)c(C(=O)/C=C/c2ccc(F)cc2)c(OCC=C(C)C)c1
IC50 (HCT-116 [1]): 3.2 µM

COc1cc(OC)c(C(=O)/C=C/c2cccc(OC)c2OC)c(OCC=C(C)C)c1
growth inhibition (GI) (Saccharomyces cerevisiae [2]): Non-Toxic
growth inhibition (GI) (Saccharomyces cerevisiae [3]): Non-Toxic
inhibition [4]: Active
growth inhibition (GI) (Saccharomyces cerevisiae [5]): Non-Toxic
IC50 (HCT-116 [1]): 11.7 µM

COc1cc(/C=C/C(=O)c2c(OC)cc(OC)cc2OCC=C(C)C)cc(OC)c1
IC50 (HCT-116 [1]): 3.5 µM

COc1cc(O)c(C(=O)/C=C/c2ccc(OC)c(OC)c2)c(OC)c1
IC50 (HCT-116 [1]): 27.6 µM

COc1cc(OCC=C(C)C)c(C(=O)/C=C/c2cc(OC)c(OC)c(OC)c2)c(OC)c1CC=C(C)C
IC50 (HCT-116 [1]): 4.2 µM

COc1cc(O)c(C(=O)/C=C/c2ccc(F)cc2)c(OC)c1
IC50 (HCT-116 [1]): 4.4 µM

COc1ccc(/C=C/C(=O)c2c(OCC=C(C)C)cc(OC)c(CC=C(C)C)c2OC)cc1OC
IC50 (HCT-116 [1]): 7.4 µM
